Read-outs that look alike come from different tables or passages of the source.
Experiments:
[1] = Conventional dosage form LPV/RTV, oral administration, non-human primates (Example 4); format: in vivo; settings: non-human primates vs humans
Text: AUC (area under the curve, or total drug exposure) of the active drug lopinavir was dose normalized across species and route of administration by dividing the total exposure by the dose administered (μg*hr*kg/(mL*mg)). Dashes represent unreported data. Apparent half-life is reported in hours.

[2] = Non-human Primates, SC; cited from earlier work
[3] = Human, IV; cited from earlier work

Row | SMILES | total AUC of lopinavir (PO) in non-human primates, fold lower than humans [1] [fold] | AUC (dose normalized) [2] [µg·kg·h/mL/mg] | T1/2, app [2] [h] | AUC (dose normalized) [3] [µg·kg·h/mL/mg] | T1/2, app [3] [h]
1 | Cc1cccc(C)c1OCC(=O)N[C@@H](Cc1ccccc1)[C@@H](O)C[C@H](Cc1ccccc1)NC(=O)[C@H](C(C)C)N1CCCNC1=O [lopinavir] | 10 |  |  |  | 
2 | C[C@H](Cn1cnc2c(N)ncnc21)OCP(=O)(O)O [TFV, tenofovir] |  | 2.1 | 8 | 5.6 | 6.6
